Legend:
[1] = test system: KRAS, pAKT, total-AKT, pERK and total-ERK proteins, in SW480 cells; test: Western blot analysis, SW480 cells harboring KRAS mutation; format: cell-based; conditions: 48 h at the IC50 concentration of each compound, KRAS mutated
Method: SW480 cells were exposed for 48 h, at the IC50 concentration of each compound before protein extraction and Western blot analysis.

[2] = test system: A2780; conditions: read-out: IC50 A2780; ovarian cancer cell line; cited from earlier work
[3] = test system: KRAS, pAKT, total-AKT, pERK and total-ERK proteins, in LS174T cells; conditions: 48 h of incubation, KRAS mutation
Method: Preparation of total protein extracts of colorectal cancer cell lines (RKO, LS174T and SW480), SDS-PAGE and Western blots were performed as previously described (Alves et al., 2015).
The Antibodies used were anti-KRAS and β-actin (Sigma); anti-phospho p44/42 MAPK (Thr202/Tyr204) (pERK), anti-p44/42 total (ERK), anti-phospho Akt (Ser473) (pAKT) and anti-Akt total (Cell Signaling) (AKT); GAPDH (Gene Tex). Proteomic study
GAPDH immunoblot was used as a loading control. The results were obtained from at least three independent experiments.

[4] = test system: proteins involved in MAPK and PI3K signaling pathways, in SW480 cells; conditions: SW480, 48 h, IC50 of PMC79
Method: Samples were processed for LC-MS/MS analysis (Chiva et al. 2018; Olivella et al. 2021). Protein identification and validation, and gene ontology, localization and network analysis were performed as previously described (Perkins et al., 1999; Beer et al., 2017; Perez-Riverol et al., 2022).
Values represent mean of at least three independent experiments.

[5] = test system: SW480 cell line; test: Colony formation assay; conditions: 48 h with ¼ IC50 and ½ IC50, SW480
Method: SW480 cell line was seeded, at a concentration of 500 cells/ml, in 6-well plates. […] The negative control cells were treated with DMSO 0.1%. […] Medium was renewed every 3 days. Nine days after removing the treatments, cells were stained as previously described (Côrte-Real, Karas, Brás, et al., 2019).
The FIG. 1 illustrates the analysis of the colony formation ability, after 48 h of incubation with ¼ IC50 and ½ IC50, in SW480 cell line. […] The values represent mean±S.D. of at least three independent experiments. Statistical analysis was performed by one-way ANOVA with Dunnett's multiple comparisons test. ****P≤ 0.0001 compared with negative control.

[6] = test system: MDA-MB-231; conditions: read-out: IC50 MDA-MB-231 (PMC79); breast cancer cell line; cited from earlier work
[7] = test system: SW480 cell line; conditions: IC50 of PMC79, 48 h
Method: After 48 h, cells were processed according with (Teixeira et al., 2018). Slides were maintained at −20° C. until visualization in a fluorescence microscope (Leica DM 5000B, Leica Microsystems, Wetzlar, Germany).
DAPI ([…]), FITC (fluorescein isothiocyanate) and merged were obtained by fluorescence microscopy.

[8] = test system: breast cancer cell lines; conditions: cited from earlier work
[9] = test system: breast cancer cell lines; conditions: cited from earlier work; remark: listed apart in the source
[10] = test system: KRAS, pAKT, total-AKT, pERK and total-ERK proteins in RKO cells; test: Western blot analysis, RKO cell line harboring wild-type KRAS; format: cell-based; conditions: 48 h with IC50 values
[11] = test system: SW480 cell line; test: Wound healing assay; conditions: IC50 and 2×IC50, 12 h
Method: SW480 cell line was seeded at a concentration of 7×10^5 cells/ml, in 6-well plates. […] The negative control cells were treated with DMSO 0.1%. Each condition was photographed at 0 h, 4 h, 8 h and 12 h. To analyze the data and measure the wound size at each time-point ImageJ 1.53a software was used.
Values represent mean±S.D. of at least three independent experiments. Statistical analysis was performed by one-way ANOVA with Turkey's multiple comparisons test. *P≤0.05; ***P≤0.001 compared with negative control.

[12] = test system: SW480 cell line
Method: SW480 cell line was seeded in 6-well plates. […] 24 h and 48 h later, cells were collected and processed according to the method described in (Teixeira et al., 2018). Cell-cycle phase data analysis and quantification was performed using FlowJo 10.7.2 software.

[13] = test system: SW480 cell line; conditions: IC50 value, 48 h
Method: SW480 cell line was seeded in 12-well plates with one coverslip per well. […] After 48 hours of incubation, the cells were fixed and stained as previously described (Pilon et al., 2020). Representative images were obtained in a fluorescence microscope (Olympus motorized BX63F Upright Microscope) (Olympus@, Tokyo, Japan) at a magnification of 600×.
Representative images (×600) of DAPI (4′,6-diamidino-2-phenylindole), Phalloidin-AlexaFluor 568 and merged were obtained in a fluorescence microscope. The results were obtained from at least three independent experiments.

[14] = test system: SW480 cells; conditions: IC50 and 2×IC50, 48 h and 72 h
Method: SW480 cells were incubated with the dye and seeded according to the procedure recommended by CFSE package insert (BD Horizon™). […] After 48 h and 72 h, both floating and attached cells were collected, washed with PBS, centrifuged at 500 rpm for 10 min and the pellet resuspended in PBS before cytometer acquisition.
The effects on proliferation were also studied using carboxyfluorescein succinimidyl ester assay (CFSE). […] Thus, when cell proliferation is inhibited, we observe an increase of the intracellular fluorescence.
The FIG. 3 illustrates the quantification of CFSE median fluorescence intensity normalized to T0 after 48 and 72 h of incubation with IC50 and 2×IC50, in SW480 cell line. The values represent mean±S.D. of at least three independent experiments. Statistical analysis was performed by two-way ANOVA with Dunnett's multiple comparisons test. **P≤0.01; ***P≤0.001; ****P≤0.0001 compared with negative control.

[15] = test system: MCF7; conditions: breast cancer cell line; cited from earlier work
[16] = test system: noncancerous NCM460 cell line derived from normal colon epithelial mucosa; conditions: read-out: IC50 in noncancerous cell line NCM460; Sulforhodamine B, 48 h
Method: (§1) The noncancerous NCM460 cell line derived from normal colon epithelial mucosa, was obtained from INCELL's (Moyer et al., 1996), and the colorectal cancer derived cell lines, SW480, LS174T and RKO, were obtained from American Type Culture Collection (ATCC). All cell lines were maintained at 37° C. under a humidified atmosphere containing 5% CO2. NCM460 and SW480 cells were grown in RPMI medium and LS174T and RKO cells in DMEM, all supplemented with 10% FBS and 1% penicillin/streptomycin. SW480 cell were seeded normally at a concentration of 1×10^5 cells/ml except for some specific assays.
(§2) After 48 h of treatment, Sulforhodamine B was performed as previously described (Côrte-Real et al., 2019). Results were expressed relatively to the negative control (1), which was considered as 100% of cell growth.
(§3) Values represent mean+SD of at least three independent experiments.

[17] = test system: SW480 CRC cell line; conditions: read-out: IC50 in SW480 CRC cell line; Sulforhodamine B, 48 h
Method: as §1, §2, §3

[18] = test system: breast cancer cell lines; conditions: cited from earlier work; remark: listed apart in the source
[19] = test system: SW480; conditions: IC50 value, 48 h
Method: Acquisition was performed using CytoFLEX Cytometer (Beckman Coulter, Brea, CA, USA).
The FIG. 4 illustrates the apoptotic cell death analysis.

O=S(=O)([O-])C(F)(F)F.OCc1ccnc(-c2cc(CO)ccn2)c1.[Ru+2].c1cc[cH-]c1.c1ccc(P(c2ccccc2)c2ccccc2)cc1 [PMC79, ({2,2′-bipyridine}-4,4′-diyldimethanol-k^2N, N′)(η^5-cyclopentadienyl) (6riphenylphosphine) ruthenium (II) triflate]
expression of KRAS, pERK, total-ERK, pAKT and total-AKT in SW480 [1]: inhibit to a very high extent
IC50 [2]: 3.9 µM
expression of KRAS, pERK, total-ERK, pAKT and total-AKT in LS174T [3]: able to inhibit the expression
Abundance Ratio (log2): (pmc79)/(Control), AKT1 [4]: −0.4039
Abundance Ratio (log2): (pmc79)/(Control), AKT2 [4]: −0.2506
Abundance Ratio (log2): (pmc79)/(Control), EGFR [4]: −0.948
Abundance Ratio (log2): (pmc79)/(Control), ERK1 [4]: −0.3601
Abundance Ratio (log2): (pmc79)/(Control), KRAS [4]: −0.4019
Abundance Ratio (log2): (pmc79)/(Control), MEK1 [4]: −0.5421
Abundance Ratio (log2): (pmc79)/(Control), MEK2 [4]: −0.2365
Abundance Ratio (log2): (pmc79)/(Control), MTOR [4]: −1.326
Abundance Ratio (log2): (pmc79)/(Control), PIK3C3 [4]: −0.1795
Abundance Ratio (log2): (pmc79)/(Control), PIK3R4 [4]: −0.5555
abundance of all proteins involved in KRAS signaling pathways versus control ([4]; EGFR, KRAS, MEK 1, MEK 2, ERK1, PIK3, AKT1, AKT2, MTOR): less abundant
clonogenic ability (colony formation) [5]: significantly decreased the clonogenic ability
IC50 [6]: 2.1 µM
TUNEL positive cells [7]: increase of the number of apoptotic cells (TUNEL positive)
apoptosis (Annexin V stained cells) in breast cancer cell lines [8]: induced apoptosis
proliferation / colony formation ability in breast cancer cell lines [9]: inhibited proliferation by decreasing colony formation ability
expression of KRAS, pERK, total-ERK, pAKT and total-AKT in RKO [10]: no effect
percentage of wound closure [11]: decreased the percentage of wound closure in a dose-dependent manner
cell cycle alteration at 24 h ([12]; IC50 of PMC79, 24 h): cell cycle arrest at G0/G1 phase
cell cycle alteration at 48 h ([12]; IC50 of PMC79, 48 h): increase of sub-G1 population
F-actin organization and morphology [13]: affect cell-cell adhesion and intercellular contacts establishment
proliferation (CFSE median fluorescence intensity) [14]: decrease in proliferation under all conditions
IC50 [15]: 5.9 µM
IC50 [16]: 44 µM
IC50 [17]: 40 µM
mitochondria morphology and actin cytoskeleton in breast cancer cell lines [18]: induced alterations in mitochondria morphology
necrotic cells (AV−/PI+) [19]: 10%
percentage of apoptotic cells (AV+/PI−; AV+/PI+) [19]: 74%

N.N.[Cl][Pt][Cl] [cisplatin, reference compound]
expression of KRAS, pERK, total-ERK, pAKT and total-AKT in SW480 [1]: not observed
expression of KRAS, pERK, total-ERK, pAKT and total-AKT in RKO [10]: The same was also observed

Source: patent publication US20250186457A1, “USE OF AN ORGANOMETALLIC RUTHENIUM COMPOUND FOR THE PREVENTION AND/OR TREATMENT OF DISEASES AND/OR CONDITIONS RELATED TO CANCER IN AN INDIVIDUAL” (FACULDADE DE CIÊNCIAS DA UNIVERSIDADE DE LISBOA, priority 2022, published 2025)
